What all share (format): cell-based, human
In assay [1] the test system is UV-C–damaged sites in MCF7 cells. Nature of the assay: FRAP of GFP-tagged proteins at sites of local UV-C damage in MCF7 cells.
Method: (C) MCF7 cells were transfected with the indicated GFP-tagged plasmids and 24 h later they were locally UV-C irradiated (50 J/m^2). 20 min following irradiation, FRAP experiments were conducted at the site of damage and in untreated cells (Fig S1). FRAP data were analysed with easyFRAP. Mean normalized fluorescence intensities at the site of damage as a function of time following photobleaching are shown. (D) MCF7 cells were synchronized in the S phase by treatment with 2-mM thymidine for 24 h. Upon release, cells were transfected with siCdt1 or control siLuc in parallel with a plasmid expressing GFP-tagged Cdt2. Cells were then synchronised in the M phase by treatment with 50 ng/ml nocodazole for 12 h, released into G1 for 5 h, and locally UV-C irradiated (50 J/m^2). 20 min after irradiation, the cells were analysed by FRAP. Mean normalized fluorescence recovery curves at the sites of damage are shown.
To perform micropore UV irradiation, cells were cultured on cover slips, washed twice with PBS, and subsequently covered with an isopore polycarbonate membrane filter (Millipore) with a pore size of either 3 or 5 μm in diameter, and irradiated. UV irradiation was achieved using a UV lamp (SUV-16, As One, Japan) with a dose rate of 0.4 J/m^2·s, which was monitored with a UV radiometer (UVX Radiometer, UVP) at 254 nm, or with a UV box equipped with a UV-C lamp monitored with a VLX-3W radiometer (Vilber Lourmat) at 254 nm (CX-254 sensor). The filter was removed and cells were either fixed or cultured for the indicated time before fixation, and processed for immunofluorescence. For FRAP analysis, cells were cultured for 20 min to allow recruitment to sites of damage before photobleaching.
Cells (HeLa or MCF7) were plated on 35-mm glass-bottom dishes in phenol-red–free medium (Invitrogen). […] A Leica TCS SP5 microscope equipped with a 63x magnification 1.4 NA oil-immersion lens and FRAP booster were used. During FRAP, cells were maintained at 37°C and 5% CO2. A defined circular region of interest with 2 μm diameter (ROI1) was placed in the nucleus and at the recruitment sites. GFP was excited using a 488-nm argon laser line. 50 pre-bleach images were acquired with 3% of the 488-nm line at 60% argon laser intensity, followed by a single bleach pulse on ROI1 using 476-nm and 488-nm laser lines combined at maximum power. In this manner, at least 60% of the fluorescence in ROI1 was bleached successfully. Next, 400 post-bleach images with a 0.052 s interval were recorded. Mean intensities of ROI1, the whole nucleus (ROI2) and an area outside of the nucleus (ROI3) were quantified and exported as .csv format files.
The test system of assay [2] is MCF7 cells, DNA-damage (CPD) sites. Nature of the assay: Recruitment of GFP-Cdt2 constructs to DNA-damage sites in MCF7 cells. Conditions: MCF7, UV-C 50 J/m^2, GFP fusions; two independent experiments. The text has this: Figure 2. The C-terminus of Cdt2 mediates Cdt2 recruitment to sites of damage. (A) A schematic drawing of the domain structure of Cdt2 and constructs used. (B) The C-terminal, but not the N-terminal, part of Cdt2 mediates recruitment to DNA damage sites. MCF7 cells transfected with the indicated plasmids were locally UV-C irradiated (50 J/m^2 through 5 μm pore diameter micropore filters), and recruitment of each Cdt2 construct to sites of damage was examined by staining with α-CPD antibody and GFP signal.
For Western blotting, whole-cell lysates were prepared by lysing cell pellets directly in SDS–PAGE buffer. For immunofluorescence, U2OS or HEK293 cells were fixed in 4% paraformaldehyde (PFA; WAKO) for 10 min, permeabilized in 0.25% (vol/vol) Triton X-100 in PBS, and stained with the indicated antibodies as described previously. […] For cyclobutane pyrimidine dimer (CPDs) staining, MCF7 and HeLa cells were fixed in 4% PFA for 10 min, permeabilized in 0.3% Triton X-100 in PBS, and then incubated in 0.5 N NaOH for 5 min for DNA denaturation before immunofluorescence. Alexa488-conjugated anti-mouse and […] anti-rabbit antibodies were used as secondary antibodies with Hoechst 33258 to visualize DNA. […] Protein levels were analysed by ImageJ software.
We used a method to induce DNA photoproducts within localized areas of the cell nucleus as described in Ishii et al (2010). To perform micropore UV irradiation, cells were cultured on cover slips, washed twice with PBS, and subsequently covered with an isopore polycarbonate membrane filter (Millipore) with a pore size of either 3 or 5 μm in diameter, and irradiated. UV irradiation was achieved using a UV lamp (SUV-16, As One, Japan) with a dose rate of 0.4 J/m^2·s, which was monitored with a UV radiometer (UVX Radiometer, UVP) at 254 nm, or with a UV box equipped with a UV-C lamp monitored with a VLX-3W radiometer (Vilber Lourmat) at 254 nm (CX-254 sensor). The filter was removed and cells were either fixed or cultured for the indicated time before fixation, and processed for immunofluorescence. […]

For assay [3], the system named is Cdt1 and p21 poly-ubiquitination. Nature of the assay: Poly-ubiquitination of Cdt1 and p21 in U2OS cells. Conditions: U2OS stable cells, MG132 3 h. The method, then:
To consider this possibility, asynchronously growing control HEK293 cells and cells expressing Cdt2^WT or Cdt2^PIP-3A were treated with proteasome inhibitor MG132 and the levels of poly-ubiquitinated Cdt1 were examined. […] Cdt2^PIP-3A-expressing cells however had reduced level of both poly-ubiquitinated Cdt1 and p21 on chromatin.
Figure S7. Cdt2 PIP box is important for CRL4^Cdt2 activity in U2OS cells. (A) U2OS stable cells expressing Cdt2^WT or Cdt2^PIP-3A. U2OS cells were transfected with expression vectors for Cdt2^WT-FLAG or Cdt2^PIP-3A-FLAG, and isolated stable clones were verified by immunofluorescent analysis and Western blot analysis. Frequency of expressing cells for each construct was shown (%). (B) Poly-ubiquitination assay with U2OS stable cells. U2OS cells and Cdt2^WT-3FLAG or Cdt2^PIP-3A-3FLAG expressing stable U2OS cells were treated with MG132 for 3 h or not (−), and whole-cell extracts were prepared for Western blotting. (C) Cells were transfected with siCdt2 or control siLuc for 72 h, irradiated with UV (+, 5 J/m^2) or not (−), and collected 1h later for Western blotting. Relative levels of Cdt1 were shown, UV (−) level set as 1.0 (average of two independent experiments).

[4] abbreviates: GFP-tagged, site of UV-C damage (50 J/m^2), 20 min after irradiation.

In assay [1] (setting [4]), “Cdt2: Cdt2 tagged with GFP, transiently expressed in MCF7 cells” had a half-recovery time of 0.83 s and an immobile fraction of 16%. Also, in assay [1] (MCF7 synchronized in G1, siCdt1 versus siLuc, Fig 1D), the “FRAP binding kinetics at damage sites after Cdt1 depletion” value is “remain the same despite the absence of Cdt1”. In addition, the “recruitment to DNA-damage sites” value in assay [2] is on record as “robustly detected at DNA-damage sites”. Moreover, the “poly-ubiquitination of Cdt1 and p21” value in assay [3] was “Increased levels”.

The record behind these values is publication PMC6312923 (Life Science Alliance, 2018).
